What all share (assay type): cell-based
In one assay the test system is KM12-luc cells. Briefly: Cell proliferation and growth inhibition assay (CCK-8) in KM12-luc. The settings on record: KM12-luc cells, treated with test compounds for 72 hrs, CCK-8 viability, read-out: NTRK IC50 in KM12-luc. Put shortly:
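Cells were grown at 37 °C, 5% CO2 with 10% FBS: MV-4-11 in IMDM, H1975 in RPMI 1640, KM12-luc in DMEM. Viability was read by CCK-8 (1-4 hrs reagent incubation, absorbance at OD450). IC50 came from a non-linear sigmoidal dose-response fit.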

A further assay has as its system MV-4-11 (AML) cells. Briefly: Cell proliferation and growth inhibition assay (CCK-8) in MV-4-11. The settings on record: Homo sapiens, MV4-11; MV-4-11 cells, treated with test compounds for 72 hrs, CCK-8 viability. How it is done: MV-4-11 and H1975 cells were obtained from the American Type Culture Collection and KM12-luc cells were obtained from JCRB Cell Bank. All cell lines were maintained at 37° C. with 5% C02, in media supplemented with 10% fetal bovine serum and penicillin (100 units/mL) and streptomycin (100 μg/mL). MV-4-11 cells were maintained in Iscove's Modified Dubecco's Medium, H1975 cells were cultured with RPMI 1640 media, and KM12-luc cells were maintained in Dulbecco's Modification of Eagle's Medium. CCK-8 reagent was obtained from Yeasen.
Cell proliferation was assessed by CCK-8 assay (Yeasen) per the manufacturer's instructions. The MV-4-11 (AML), H1975, and KM12-luc cells were seeded at 30,000, 3,000 and 2,500 cells per well onto 96-well plates, and after a 24 h incubation, the cells were treated with test compounds for 72 hrs. Cell viability was assayed by incubating the cells with CCK-8 reagent for 1-4 hrs. Absorbance was measured at OD450 using the Beckman DTX880. The data was calculated using GraphPad Prism version 6.01. The IC50 values were fitted using a non-linear regression model with a sigmoidal dose response.

Another assay concerns H1975 cells. Briefly: Cell proliferation and growth inhibition assay (CCK-8) in H1975. The note with it: Homo sapiens, NCI-H1975, 72 h, treated with test compounds for 72 hrs, CCK-8 viability, read-out: EGFR IC50 in H1975. Put shortly:
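Cells seeded at 30,000 (MV-4-11, IMDM) or 3,000 (H1975, RPMI 1640) per well, left 24 h, then compound-treated 72 h at 37 °C, 5% CO2, 10% FBS. Viability read by CCK-8 (1–4 h) at OD450. IC50 from sigmoidal dose-response nonlinear regression.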

Read-outs that look alike come from different tables or passages of the source.

Turning to `CC(=O)Nc1cc(Nc2ncc(Cl)c(-c3c[nH]c4ccccc34)n2)ccc1N1CCC(N(C)C)C1` (stereo not drawn) [Compound 444, N-(5-((5-chloro-4-(1H-indol-3-yl)pyrimidin-2-yl)amino)-2-(3-(dimethylamino)pyrrolidin-1-yl)phenyl)acetamide], the IC50 in the assay on KM12-luc cells (KM12-Luc, 72 h) is 5.5 nM; in the assay on MV-4-11 (AML) cells it was 2.9 nM; in the assay with H1975 cells, 299 nM.
The matching figures for `CC(=O)Nc1cc(Nc2ncc(C(F)(F)F)c(-c3c[nH]c4c(F)cccc34)n2)ccc1N(C)CCN(C)C` [Compound 334, N-(2-((2-(dimethylamino)ethyl)(methyl)amino)-5-((4-(7-fluoro-1H-indol-3-yl)-5-(trifluoromethyl)pyrimidin-2-yl)amino)phenyl)acetamide]: 3 nM, 3.4 nM and 92.1 nM.
As for `CC(=O)Nc1cc(Nc2ncc(C(F)(F)F)c(-c3c[nH]c4c(C)cccc34)n2)ccc1N1CC[C@H](N(C)C)C1` [Compound S-366, (S)—N-(2-(3-(dimethylamino)pyrrolidin-1-yl)-5-((4-(7-methyl-1H-indol-3-yl)-5-(trifluoromethyl)pyrimidin-2-yl)amino)phenyl)acetamide], the IC50 in the assay with KM12-luc cells (KM12-Luc, 72 h) was 3.1 nM; in the assay with MV-4-11 (AML) cells it was 3 nM; in the assay on H1975 cells it was 97.8 nM.
In the same order, the values of `COc1cccc2c(-c3nc(Nc4ccc(N(C)CCN(C)C)c(NC(C)=O)c4)ncc3C(F)(F)F)c[nH]c12` [Compound 374, N-(2-((2-(dimethylamino)ethyl)(methyl)amino)-5-((4-(7-methoxy-1H-indol-3-yl)-5-(trifluoromethyl)pyrimidin-2-yl)amino)phenyl)acetamide] are 3.7 nM, 5.3 nM and 52.5 nM.
In the case of `Cc1cccc2c(-c3nc(Nc4ccc(N(C)CCN(C)C)c(N)c4)ncc3Cl)c[nH]c12` [Compound 422, N^4-(5-chloro-4-(7-methyl-1H-indol-3-yl)pyrimidin-2-yl)-N^1-(2-(dimethylamino)ethyl)-N^1-methylbenzene-1,2,4-triamine], the IC50 in the assay with KM12-luc cells (KM12-Luc, 72 h) was determined as 5.2 nM; in the assay with MV-4-11 (AML) cells, 5.2 nM; in the assay on H1975 cells, 288 nM.
Regarding `Cc1cccc2c(-c3nc(Nc4ccc(N(C)CCN(C)C)c(N)c4)ncc3C(F)(F)F)c[nH]c12` [Compound 359, N^1-(2-(dimethylamino)ethyl)-N^1-methyl-N^4-(4-(7-methyl-1H-indol-3-yl)-5-(trifluoromethyl)pyrimidin-2-yl)benzene-1,2,4-triamine], the half-maximal inhibitory concentration (IC50) in the assay with KM12-luc cells (KM12-Luc, 72 h) came to 5.5 nM; with MV-4-11 (AML) cells, 5.9 nM; in the assay on H1975 cells, 120 nM.
For `CC(=O)Nc1cc(Nc2ncc(Cl)c(-c3cn(C)c4ccccc34)n2)ccc1N1CCC(N(C)C)C1` (stereo not drawn) [Compound 402, N-(5-((5-chloro-4-(1-methyl-1H-indol-3-yl)pyrimidin-2-yl)amino)-2-(3-(dimethylamino)pyrrolidin-1-yl)phenyl)acetamide], the half-maximal inhibitory concentration (IC50) was 27.4 nM in the assay with KM12-luc cells (KM12-Luc, 72 h); 64.2 nM in the assay with MV-4-11 (AML) cells; 1210 nM in the assay with H1975 cells.
In the same order, the values of `COc1cccc2c(-c3nc(Nc4ccc(N5CC[C@H](N(C)C)C5)c(NC(C)=O)c4)ncc3C(F)(F)F)c[nH]c12` [Compound S-382a, (S)—N-(2-(3-(dimethylamino)pyrrolidin-1-yl)-5-((4-(7-methoxy-1H-indol-3-yl)-5-(trifluoromethyl)pyrimidin-2-yl)amino)phenyl)acetamide] are 5.3 nM, 3.7 nM and 134 nM.
As to `Cc1cccc2c(-c3nc(Nc4ccc(N5CC[C@H](N(C)C)C5)c(N)c4)ncc3Cl)cn(C)c12` [Compound S-425, (S)—N^1-(5-chloro-4-(1,7-dimethyl-1H-indol-3-yl)pyrimidin-2-yl)-4-(3-(dimethylamino)pyrrolidin-1-yl)benzene-1,3-diamine], the values for the IC50 in the assay on KM12-luc cells, in the assay on MV-4-11 (AML) cells and in the assay with H1975 cells were 3.5 nM, 3.2 nM and 167 nM, respectively.
Turning to `CC(=O)Nc1cc(Nc2ncc(C(F)(F)F)c(-c3c[nH]c4c(C)cccc34)n2)ccc1N(C)CCN(C)C` [Compound 358, N-(2-((2-(dimethylamino)ethyl)(methyl)amino)-5-((4-(7-methyl-1H-indol-3-yl)-5-(trifluoromethyl)pyrimidin-2-yl)amino)phenyl)acetamide], the IC50 was determined as 3.1 nM in the assay on KM12-luc cells (KM12-Luc, 72 h); 4.4 nM in the assay on MV-4-11 (AML) cells; 47 nM in the assay with H1975 cells.
On to `CC(=O)Nc1cc(Nc2ncc(C(F)(F)F)c(-c3c[nH]c4c(F)cccc34)n2)ccc1N1CC[C@H](N(C)C)C1` [Compound S-344, (S)—N-(2-(3-(dimethylamino)pyrrolidin-1-yl)-5-((4-(7-fluoro-1H-indol-3-yl)-5-(tri-fluoromethyl)pyrimidin-2-yl)amino)phenyl)acetamide], for which the IC50 was 6.3 nM with KM12-luc cells (KM12-Luc, 72 h); 5.6 nM with MV-4-11 (AML) cells; 198 nM with H1975 cells.
`COc1cccc2c(-c3nc(Nc4ccc(N(C)CCN(C)C)c(N)c4)ncc3C(F)(F)F)c[nH]c12` [Compound 375, N^1-(2-(dimethylamino)ethyl)-N^4-(4-(7-methoxy-1H-indol-3-yl)-5-(trifluoromethyl)pyrimidin-2-yl)-N^1-methylbenzene-1,2,4-triamine]: the IC50 was determined as 4.1 nM in the assay with KM12-luc cells (KM12-Luc, 72 h); 4.2 nM in the assay on MV-4-11 (AML) cells; 152 nM in the assay on H1975 cells.
On to `CCN(CCN(C)C)c1ccc(Nc2ncc(C(F)(F)F)c(-c3c[nH]c4c(F)cccc34)n2)cc1N` [Compound 337, N^1-(2-(dimethylamino)ethyl)-N^1-ethyl-N^4-(4-(7-fluoro-1H-indol-3-yl)-5-(trifluoromethyl)pyrimidin-2-yl)benzene-1,2,4-triamine], for which the half-maximal inhibitory concentration (IC50) in the assay with KM12-luc cells (KM12-Luc, 72 h) was 10.4 nM; in the assay with MV-4-11 (AML) cells, 11.1 nM; in the assay on H1975 cells, 366 nM.
The matching figures for `CC(=O)Nc1cc(Nc2ncc(Cl)c(-c3c[nH]c4c(C)cccc34)n2)ccc1N1CC[C@@H](N(C)C)C1` [Compound R-426, (R)—N-(5-((5-chloro-4-(7-methyl-1H-indol-3-yl)pyrimidin-2-yl)amino)-2-(3-(dimethylamino)pyrrolidin-1-yl)phenyl)acetamide]: 2.1 nM, 3 nM and 152 nM.
Turning to `CC(=O)Nc1cc(Nc2ncc(C(F)(F)F)c(-c3c[nH]c4c(C)cccc34)n2)ccc1OCCN(C)C` [Compound 365, N-(2-(2-(dimethylamino)ethoxy)-5-((4-(7-methy-1H-indol-3-yl)-5-(trifluoromethyl)pyrimidin-2-yl)amino)phenyl)acetamide], the IC50 came out at 4.3 nM in the assay on KM12-luc cells (KM12-Luc, 72 h); 4.4 nM in the assay on MV-4-11 (AML) cells; 68.3 nM in the assay on H1975 cells.
In the same order, the values of `CC(=O)Nc1cc(Nc2ncc(C(F)(F)F)c(-c3c[nH]c4c(C)cccc34)n2)ccc1N1CC[C@@H](N(C)C)C1` [Compound R-366, (R)—N-(2-(3-(dimethylamino)pyrrolidin-1-yl)-5-((4-(7-methyl-1H-indol-3-yl)-5-(trifluoromethyl)pyrimidin-2-yl)amino)phenyl)acetamide] are 5.2 nM, 5.3 nM and 88.6 nM.
On to `COc1cnc(Nc2ccc(OCCN(C)C)c(NC(C)=O)c2)nc1-c1c[nH]c2c(C)cccc12` [Compound 284, N-(2-(2-(dimethylamino)ethoxy)-5-((5-methoxy-4-(7-methyl-1H-indol-3-yl)pyrimidin-2-yl)amino)phenyl)acetamide], for which the concentration for half-maximal inhibition (IC50) in the assay on KM12-luc cells (KM12-Luc, 72 h) was determined as 15 nM; in the assay with MV-4-11 (AML) cells, 63.8 nM; in the assay on H1975 cells, 1030 nM.
With `CC(=O)Nc1cc(Nc2ncc(Cl)c(-c3cn(C)c4c(C)cccc34)n2)ccc1N1CC[C@H](N(C)C)C1` [Compound S-426, (S)—N-(5-((5-chloro-4-(1,7-dimethyl-1H-indol-3-yl)pyrimidin-2-yl)amino)-2-(3-(dimethylamino)pyrrolidin-1-yl)phenyl)acetamide], the 50% inhibitory concentration (IC50) amounted to 2.7 nM in the assay on KM12-luc cells, 4.2 nM with MV-4-11 (AML) cells and 189 nM with H1975 cells.
On to `CC(=O)Nc1cc(Nc2ncc(Cl)c(-c3c[nH]c4ccccc34)n2)ccc1N(C)C(=O)CCN(C)C` [Compound 446, N-(2-acetamido-4-((5-chloro-4-(1H-indol-3-yl)pyrimidin-2-yl)amino)phenyl)-3-(dimethylamino)-N-methylpropanamide], for which the IC50 in the assay on KM12-luc cells (KM12-Luc, 72 h) came out at 4.9 nM; with MV-4-11 (AML) cells, 10.6 nM; in the assay with H1975 cells it was 667 nM.

One may read the IC50 as the concentration that inhibits the measured activity by half.

The record behind these values is patent publication US20250136576A1, “Heterocyclic Compounds and Uses Thereof” (ACEA Therapeutics, Inc., priority 2021, published 2025).
